According to patent US20220323406A1, “METHODS AND COMPOSITIONS FOR DIFFERENTIATING STEM CELLS” (Massachusetts Institute of Technology, priority 2019, published 2022):

Legend:
[1] = test system: ENR+CD organoids (ISC to Paneth cell differentiation); test: Primary screen: basal (non-stimulated) lysozyme secretion LYZ.NS, 2.5-D 384-well ENR+CD organoid differentiation; type: cell-based, mouse
Source text: (§1) High-throughput screening.

[2] = test system: ENR+CD organoids (ISC to Paneth cell differentiation); test: Primary screen: CCh-stimulated lysozyme secretion LYZ.S, 2.5-D 384-well ENR+CD organoid differentiation; type: cell-based, mouse; conditions: primary screen
Source text: as §1

[3] = test system: ENR+CD organoids; test: Primary screen: ATP (CellTiter-Glo 3D, CTG) cell number/viability, 2.5-D 384-well ENR+CD organoids; conditions: primary screen; for Z.CTG: standard z score;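 for all read-outs here: compounds given at plating and again on day 3 over a 6-day differentiation from ENR+CV stem-cell-enriched precursors, ATP measured on day 6, plate median as control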
[4] = primary screen, dose 0.08 uM, FC relative to plate median
[5] = primary screen, dose 0.08 uM, standard z score
[6] = primary screen, dose 0.40 uM, FC relative to plate median
[7] = primary screen, dose 0.40 uM, standard z score
[8] = primary screen, dose 2.00 uM, FC relative to plate median
[9] = primary screen, dose 2.00 uM, standard z score
[10] = primary screen, dose 10.00 uM, FC relative to plate median
[11] = primary screen, dose 10.00 uM, standard z score
[12] = dose 0.08 uM, FC relative to plate median
[13] = dose 0.40 uM, FC relative to plate median
[14] = dose 2.00 uM, FC relative to plate median
[15] = dose 10.00 uM, FC relative to plate median
[16] = dose 0.08 uM, FC vs plate median
[17] = dose 0.40 uM, FC vs plate median
[18] = dose 2.00 uM, FC vs plate median
[19] = dose 10.00 uM, FC vs plate median

## O=C(O[C@H]1C[C@H]2CC[C@@H](C1)[N+]21CCCC1)C(O)(c1ccccc1)c1ccccc1 [Trospium chloride]
[1]; primary screen, dose 0.08 uM
  Dose.FC.LYZ.NS: 0.169 log2 fold change
  Z.LYZ.NS (standard z score): 1.470
[1]; primary screen, dose 0.40 uM
  Dose.FC.LYZ.NS: 0.218 log2 fold change
  Z.LYZ.NS (standard z score): 1.895
[1]; primary screen, dose 2.00 uM
  Dose.FC.LYZ.NS: −0.002 log2 fold change
  Z.LYZ.NS (standard z score): −0.017
[1]; primary screen, dose 10.00 uM
  Dose.FC.LYZ.NS: 0.102 log2 fold change
  Z.LYZ.NS (standard z score): 0.885
[2]; dose 0.08 uM
  Dose.FC.LYZ.S: 0.119 log2 fold change
[2]; dose 0.40 uM
  Dose.FC.LYZ.S: 0.117 log2 fold change
[2]; dose 2.00 uM
  Dose.FC.LYZ.S: −0.008 log2 fold change
[2]; dose 10.00 uM
  Dose.FC.LYZ.S: 0.084 log2 fold change
[3]; dose 0.08 uM
  Dose.FC.CTG: 0.083 log2 fold change
[3]; dose 0.40 uM
  Dose.FC.CTG: −0.031 log2 fold change
[3]; dose 2.00 uM
  Dose.FC.CTG: 0.200 log2 fold change
[3]; dose 10.00 uM
  Dose.FC.CTG: 0.148 log2 fold change

## COc1cc(OC)c(/C=C/S(=O)(=O)Cc2ccc(OC)c(NCC(=O)O)c2)c(OC)c1 [Rigosertib (ON-01910)]
[1]; [4]
  Dose.FC.LYZ.NS: −0.242 log2 fold change
[1]; [5]
  Z.LYZ.NS: −2.105
[1]; [6]
  Dose.FC.LYZ.NS: −0.210 log2 fold change
[1]; [7]
  Z.LYZ.NS: −1.831
[1]; [8]
  Dose.FC.LYZ.NS: −0.265 log2 fold change
[1]; [9]
  Z.LYZ.NS: −2.306
[1]; [10]
  Dose.FC.LYZ.NS: −0.242 log2 fold change
[1]; [11]
  Z.LYZ.NS: −2.107
[2]; [12]
  Dose.FC.LYZ.S: −0.309 log2 fold change
[2]; [13]
  Dose.FC.LYZ.S: −0.355 log2 fold change
[2]; [14]
  Dose.FC.LYZ.S: −0.340 log2 fold change
[2]; [15]
  Dose.FC.LYZ.S: −0.330 log2 fold change
[3]; [12]
  Dose.FC.CTG: −0.905 log2 fold change
[3]; dose 0.08 uM
  Z.CTG: −2.162
[3]; [13]
  Dose.FC.CTG: −1.285 log2 fold change
[3]; dose 0.40 uM
  Z.CTG: −3.069
[3]; [14]
  Dose.FC.CTG: −1.668 log2 fold change
[3]; dose 2.00 uM
  Z.CTG: −3.984
[3]; [15]
  Dose.FC.CTG: −0.847 log2 fold change
[3]; dose 10.00 uM
  Z.CTG: −2.022

## COCCOc1ccc2c(c1)ncn2-c1ccc2cccc(N3CCC(N)CC3)c2n1 [CP-673451]
[1]; primary screen, dose 0.08 uM
  Dose.FC.LYZ.NS: 0.031 log2 fold change
[1]; primary screen, dose 0.40 uM
  Dose.FC.LYZ.NS: 0.066 log2 fold change
[1]; primary screen, dose 2.00 uM
  Dose.FC.LYZ.NS: 0.102 log2 fold change
[1]; primary screen, dose 10.00 uM
  Dose.FC.LYZ.NS: −0.058 log2 fold change
[1]; primary screen, standard z score, dose 0.08 uM
  Z.LYZ.NS: 0.274
[1]; primary screen, standard z score, dose 0.40 uM
  Z.LYZ.NS: 0.577
[1]; primary screen, standard z score, dose 2.00 uM
  Z.LYZ.NS: 0.886
[1]; primary screen, standard z score, dose 10.00 uM
  Z.LYZ.NS: −0.508
[2]; dose 0.08 uM
  Dose.FC.LYZ.S: 0.096 log2 fold change
[2]; dose 0.40 uM
  Dose.FC.LYZ.S: −0.046 log2 fold change
[2]; dose 2.00 uM
  Dose.FC.LYZ.S: 0.080 log2 fold change
[2]; dose 10.00 uM
  Dose.FC.LYZ.S: −0.147 log2 fold change
[3]; dose 0.08 uM
  Dose.FC.CTG: 0.069 log2 fold change
[3]; dose 0.40 uM
  Dose.FC.CTG: 0.186 log2 fold change
[3]; dose 2.00 uM
  Dose.FC.CTG: 0.008 log2 fold change
[3]; dose 10.00 uM
  Dose.FC.CTG: −0.258 log2 fold change

## Cl.NC(=O)c1cnc(N[C@@H]2CCCC[C@@H]2N)nc1Nc1cccc(-n2nccn2)c1 [PRT062607 (P505-15, BIIB057) HCl]
[1]; [4]
  Dose.FC.LYZ.NS: 0.004 log2 fold change
[1]; [5]
  Z.LYZ.NS: 0.037
[1]; [6]
  Dose.FC.LYZ.NS: 0.022 log2 fold change
[1]; [7]
  Z.LYZ.NS: 0.194
[1]; [8]
  Dose.FC.LYZ.NS: −0.032 log2 fold change
[1]; [9]
  Z.LYZ.NS: −0.280
[1]; [10]
  Dose.FC.LYZ.NS: −0.211 log2 fold change
[1]; [11]
  Z.LYZ.NS: −1.837
[2]; [12]
  Dose.FC.LYZ.S: −0.033 log2 fold change
[2]; [13]
  Dose.FC.LYZ.S: 0.122 log2 fold change
[2]; [14]
  Dose.FC.LYZ.S: −0.123 log2 fold change
[2]; [15]
  Dose.FC.LYZ.S: −0.298 log2 fold change
[3]; [12]
  Dose.FC.CTG: −0.092 log2 fold change
[3]; dose 0.08 uM
  Z.CTG: −0.219
[3]; [13]
  Dose.FC.CTG: 0.080 log2 fold change
[3]; dose 0.40 uM
  Z.CTG: 0.191
[3]; [14]
  Dose.FC.CTG: −0.075 log2 fold change
[3]; dose 2.00 uM
  Z.CTG: −0.179
[3]; [15]
  Dose.FC.CTG: −0.330 log2 fold change
[3]; dose 10.00 uM
  Z.CTG: −0.788

## CN1CCCCC1Cn1cc(C(=O)c2cc([N+](=O)[O-])ccc2I)c2ccccc21 (centres unmarked) [AM1241]
[1]; primary screen, dose 0.08 uM
  Dose.FC.LYZ.NS: 0.052 log2 fold change
  Z.LYZ.NS (standard z score): 0.454
[1]; primary screen, dose 0.40 uM
  Dose.FC.LYZ.NS: 0.004 log2 fold change
  Z.LYZ.NS (standard z score): 0.035
[1]; primary screen, dose 2.00 uM
  Dose.FC.LYZ.NS: −0.014 log2 fold change
  Z.LYZ.NS (standard z score): −0.123
[1]; primary screen, dose 10.00 uM
  Dose.FC.LYZ.NS: −0.003 log2 fold change
  Z.LYZ.NS (standard z score): −0.028
[2]; dose 0.08 uM
  Dose.FC.LYZ.S: 0.046 log2 fold change
[2]; dose 0.40 uM
  Dose.FC.LYZ.S: 0.088 log2 fold change
[2]; dose 2.00 uM
  Dose.FC.LYZ.S: −0.017 log2 fold change
[2]; dose 10.00 uM
  Dose.FC.LYZ.S: −0.080 log2 fold change
[3]; dose 0.08 uM
  Dose.FC.CTG: 0.159 log2 fold change
  Z.CTG (standard z score): 0.379
[3]; dose 0.40 uM
  Dose.FC.CTG: −0.054 log2 fold change
  Z.CTG (standard z score): −0.129
[3]; dose 2.00 uM
  Dose.FC.CTG: −0.062 log2 fold change
  Z.CTG (standard z score): −0.147
[3]; dose 10.00 uM
  Dose.FC.CTG: −0.001 log2 fold change
  Z.CTG (standard z score): −0.002

## CC(=O)Nc1nc2c(Oc3cc(-c4ccc(C(F)(F)F)cc4)ncn3)cccc2s1 [AMG-517]
[1]; primary screen, dose 0.08 uM
  Dose.FC.LYZ.NS: 0.020 log2 fold change
  Z.LYZ.NS (standard z score): 0.178
[1]; primary screen, dose 0.40 uM
  Dose.FC.LYZ.NS: 0.060 log2 fold change
  Z.LYZ.NS (standard z score): 0.522
[1]; primary screen, dose 2.00 uM
  Dose.FC.LYZ.NS: −0.006 log2 fold change
  Z.LYZ.NS (standard z score): −0.051
[1]; primary screen, dose 10.00 uM
  Dose.FC.LYZ.NS: 0.031 log2 fold change
  Z.LYZ.NS (standard z score): 0.267
[2]; dose 0.08 uM
  Dose.FC.LYZ.S: 0.084 log2 fold change
[2]; dose 0.40 uM
  Dose.FC.LYZ.S: 0.060 log2 fold change
[2]; dose 2.00 uM
  Dose.FC.LYZ.S: 0.002 log2 fold change
[2]; dose 10.00 uM
  Dose.FC.LYZ.S: 0.266 log2 fold change
[3]; dose 0.08 uM
  Dose.FC.CTG: 0.161 log2 fold change
[3]; dose 0.40 uM
  Dose.FC.CTG: 0.113 log2 fold change
[3]; dose 2.00 uM
  Dose.FC.CTG: 0.112 log2 fold change
[3]; dose 10.00 uM
  Dose.FC.CTG: 0.056 log2 fold change

## Cc1c(Cc2ccc3ccccc3n2)c2cc(F)ccc2n1CC(=O)O [OC000459]
[1]; [5]
  Z.LYZ.NS: 0.416
[1]; [7]
  Z.LYZ.NS: 0.461
[1]; [9]
  Z.LYZ.NS: 0.507
[1]; [11]
  Z.LYZ.NS: 0.287
[1]; primary screen; dose 0.08 uM; FC vs plate median
  Dose.FC.LYZ.NS: 0.048 log2 fold change
[1]; primary screen; dose 0.40 uM; FC vs plate median
  Dose.FC.LYZ.NS: 0.053 log2 fold change
[1]; primary screen; dose 2.00 uM; FC vs plate median
  Dose.FC.LYZ.NS: 0.058 log2 fold change
[1]; primary screen; dose 10.00 uM; FC vs plate median
  Dose.FC.LYZ.NS: 0.033 log2 fold change
[2]; [16]
  Dose.FC.LYZ.S: 0.090 log2 fold change
[2]; [17]
  Dose.FC.LYZ.S: 0.199 log2 fold change
[2]; [18]
  Dose.FC.LYZ.S: 0.130 log2 fold change
[2]; [19]
  Dose.FC.LYZ.S: 0.051 log2 fold change
[3]; [16]
  Dose.FC.CTG: 0.077 log2 fold change
[3]; [17]
  Dose.FC.CTG: −0.065 log2 fold change
[3]; [18]
  Dose.FC.CTG: 0.088 log2 fold change
[3]; [19]
  Dose.FC.CTG: 0.088 log2 fold change

## Cc1cc(Nc2ncc(Cl)c(Nc3ccccc3S(=O)(=O)C(C)C)n2)c(OC(C)C)cc1C1CCNCC1 [LDK378]
[1]; primary screen, dose 0.08 uM
  Dose.FC.LYZ.NS (log2 fold change): 0.061
  Z.LYZ.NS (standard z score): 0.534
[1]; primary screen, dose 0.40 uM
  Dose.FC.LYZ.NS (log2 fold change): −0.053
  Z.LYZ.NS (standard z score): −0.465
[1]; primary screen, dose 2.00 uM
  Dose.FC.LYZ.NS (log2 fold change): −0.195
  Z.LYZ.NS (standard z score): −1.702
[1]; primary screen, dose 10.00 uM
  Dose.FC.LYZ.NS (log2 fold change): −0.338
  Z.LYZ.NS (standard z score): −2.939
[2]; dose 0.08 uM
  Dose.FC.LYZ.S (log2 fold change): 0.118
[2]; dose 0.40 uM
  Dose.FC.LYZ.S (log2 fold change): −0.047
[2]; dose 2.00 uM
  Dose.FC.LYZ.S (log2 fold change): −0.281
[2]; dose 10.00 uM
  Dose.FC.LYZ.S (log2 fold change): −0.487
[3]; dose 0.08 uM
  Dose.FC.CTG (log2 fold change): 0.135
[3]; dose 0.40 uM
  Dose.FC.CTG (log2 fold change): 0.004
[3]; dose 2.00 uM
  Dose.FC.CTG (log2 fold change): −0.364
[3]; dose 10.00 uM
  Dose.FC.CTG (log2 fold change): −1.292
